# Laboratory results: article PMC9927415, “Tyrosine Kinase Inhibitors Display Potent Activity against Cryptosporidium parvum” (Microbiology Spectrum, 2022)
# Experiments:
# TNNI3K = molecular target: T1, TNNI3K (Homo sapiens, UniProt Q59H18); assay: KINOMEscan competitive binding; conditions: n=1, read-out: Percent inhibition, TNNI3K
# T1 construct: purchased DiscoverX (KINOMEscan)
# T1 sequence (Q59H18 1-835): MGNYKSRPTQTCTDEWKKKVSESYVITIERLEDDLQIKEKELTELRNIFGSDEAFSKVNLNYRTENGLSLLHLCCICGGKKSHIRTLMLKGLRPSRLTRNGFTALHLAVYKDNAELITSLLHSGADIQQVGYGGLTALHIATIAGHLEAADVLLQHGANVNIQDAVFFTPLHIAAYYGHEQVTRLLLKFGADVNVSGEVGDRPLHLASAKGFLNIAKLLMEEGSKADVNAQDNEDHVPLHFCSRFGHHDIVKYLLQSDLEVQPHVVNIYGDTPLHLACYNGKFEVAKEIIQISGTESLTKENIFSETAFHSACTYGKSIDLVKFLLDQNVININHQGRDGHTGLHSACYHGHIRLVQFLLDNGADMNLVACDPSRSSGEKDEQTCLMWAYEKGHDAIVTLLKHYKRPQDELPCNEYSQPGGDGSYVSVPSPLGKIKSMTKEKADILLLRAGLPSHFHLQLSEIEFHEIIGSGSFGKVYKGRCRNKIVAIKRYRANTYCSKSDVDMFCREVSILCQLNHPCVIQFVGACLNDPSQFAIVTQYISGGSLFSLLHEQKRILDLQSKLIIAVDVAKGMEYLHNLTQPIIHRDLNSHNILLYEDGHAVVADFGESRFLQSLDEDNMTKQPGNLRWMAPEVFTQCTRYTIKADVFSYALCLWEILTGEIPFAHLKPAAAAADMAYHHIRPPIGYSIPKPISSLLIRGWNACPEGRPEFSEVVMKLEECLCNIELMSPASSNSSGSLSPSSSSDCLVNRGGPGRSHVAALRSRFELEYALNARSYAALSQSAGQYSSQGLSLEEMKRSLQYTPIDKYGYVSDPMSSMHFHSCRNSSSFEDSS
# PAK3 = molecular target: T2, PAK3 (Homo sapiens, UniProt O75914); assay: KINOMEscan competitive binding; conditions: n=1, read-out: Percent inhibition, PAK3
# T2 construct: purchased DiscoverX (KINOMEscan)
# PLK3 = molecular target: T3, PLK3 (Homo sapiens, UniProt Q9H4B4); assay: KINOMEscan competitive binding; conditions: n=1, read-out: Percent inhibition, PLK3
# T3 construct: purchased DiscoverX (KINOMEscan)
# T3 sequence (Q9H4B4 whole entry): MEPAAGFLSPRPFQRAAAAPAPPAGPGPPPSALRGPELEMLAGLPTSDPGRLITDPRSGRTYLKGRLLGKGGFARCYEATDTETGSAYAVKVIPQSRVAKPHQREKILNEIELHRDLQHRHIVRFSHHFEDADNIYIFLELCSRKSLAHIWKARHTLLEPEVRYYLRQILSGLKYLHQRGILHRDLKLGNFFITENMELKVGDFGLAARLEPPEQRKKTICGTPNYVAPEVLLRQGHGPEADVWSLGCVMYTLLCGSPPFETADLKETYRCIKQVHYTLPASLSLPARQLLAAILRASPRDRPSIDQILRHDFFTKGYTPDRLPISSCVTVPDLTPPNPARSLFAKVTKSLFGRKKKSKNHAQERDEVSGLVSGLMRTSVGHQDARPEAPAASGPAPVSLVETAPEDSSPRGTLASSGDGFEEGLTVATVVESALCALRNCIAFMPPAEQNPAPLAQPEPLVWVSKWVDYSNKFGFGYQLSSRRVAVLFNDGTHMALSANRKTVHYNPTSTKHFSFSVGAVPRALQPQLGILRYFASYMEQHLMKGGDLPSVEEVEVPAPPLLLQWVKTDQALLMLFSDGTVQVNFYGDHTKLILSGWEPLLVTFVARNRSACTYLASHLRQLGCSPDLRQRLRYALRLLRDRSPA
# TIE2 = molecular target: T4, TIE2 (Homo sapiens, UniProt Q02763); assay: KINOMEscan competitive binding; conditions: n=1, read-out: Percent inhibition, TIE2
# T4 construct: purchased DiscoverX (KINOMEscan)
# T4 sequence (Q02763 23-1124): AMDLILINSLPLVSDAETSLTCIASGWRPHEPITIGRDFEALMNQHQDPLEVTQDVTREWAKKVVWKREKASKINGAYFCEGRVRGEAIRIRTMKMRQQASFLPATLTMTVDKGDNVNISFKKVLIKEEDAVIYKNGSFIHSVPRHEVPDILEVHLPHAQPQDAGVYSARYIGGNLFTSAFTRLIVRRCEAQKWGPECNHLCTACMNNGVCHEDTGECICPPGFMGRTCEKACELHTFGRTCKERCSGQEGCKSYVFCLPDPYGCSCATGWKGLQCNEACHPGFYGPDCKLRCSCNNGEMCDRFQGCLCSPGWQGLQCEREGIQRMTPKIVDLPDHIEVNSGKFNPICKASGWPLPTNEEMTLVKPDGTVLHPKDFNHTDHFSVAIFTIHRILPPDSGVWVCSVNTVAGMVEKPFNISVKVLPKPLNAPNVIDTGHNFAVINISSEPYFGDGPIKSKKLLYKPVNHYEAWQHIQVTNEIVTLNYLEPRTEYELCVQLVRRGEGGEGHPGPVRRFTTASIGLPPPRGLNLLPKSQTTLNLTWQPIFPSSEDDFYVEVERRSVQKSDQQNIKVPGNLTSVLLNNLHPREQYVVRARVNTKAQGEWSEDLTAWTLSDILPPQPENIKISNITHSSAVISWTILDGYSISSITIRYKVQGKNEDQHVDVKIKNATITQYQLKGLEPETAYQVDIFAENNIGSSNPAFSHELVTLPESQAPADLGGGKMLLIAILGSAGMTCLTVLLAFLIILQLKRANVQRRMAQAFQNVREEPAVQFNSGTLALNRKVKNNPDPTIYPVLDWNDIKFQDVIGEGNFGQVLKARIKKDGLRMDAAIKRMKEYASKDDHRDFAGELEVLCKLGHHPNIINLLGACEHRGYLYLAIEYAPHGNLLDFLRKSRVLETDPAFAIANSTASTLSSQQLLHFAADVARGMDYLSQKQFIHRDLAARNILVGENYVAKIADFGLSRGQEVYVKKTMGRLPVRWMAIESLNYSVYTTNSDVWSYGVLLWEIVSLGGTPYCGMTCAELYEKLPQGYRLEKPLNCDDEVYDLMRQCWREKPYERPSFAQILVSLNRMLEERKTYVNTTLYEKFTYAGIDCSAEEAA
# panel of 203 kinases = molecular target: T5, panel of 203 kinases (Homo sapiens, UniProt P16591); assay: KINOMEscan competitive binding, whole panel; conditions: 10 µM, n=1; kinase FER; read-out: Percent inhibition FER
# T5 construct: purchased DiscoverX (KINOMEscan)
# T5 sequence (P16591 whole entry): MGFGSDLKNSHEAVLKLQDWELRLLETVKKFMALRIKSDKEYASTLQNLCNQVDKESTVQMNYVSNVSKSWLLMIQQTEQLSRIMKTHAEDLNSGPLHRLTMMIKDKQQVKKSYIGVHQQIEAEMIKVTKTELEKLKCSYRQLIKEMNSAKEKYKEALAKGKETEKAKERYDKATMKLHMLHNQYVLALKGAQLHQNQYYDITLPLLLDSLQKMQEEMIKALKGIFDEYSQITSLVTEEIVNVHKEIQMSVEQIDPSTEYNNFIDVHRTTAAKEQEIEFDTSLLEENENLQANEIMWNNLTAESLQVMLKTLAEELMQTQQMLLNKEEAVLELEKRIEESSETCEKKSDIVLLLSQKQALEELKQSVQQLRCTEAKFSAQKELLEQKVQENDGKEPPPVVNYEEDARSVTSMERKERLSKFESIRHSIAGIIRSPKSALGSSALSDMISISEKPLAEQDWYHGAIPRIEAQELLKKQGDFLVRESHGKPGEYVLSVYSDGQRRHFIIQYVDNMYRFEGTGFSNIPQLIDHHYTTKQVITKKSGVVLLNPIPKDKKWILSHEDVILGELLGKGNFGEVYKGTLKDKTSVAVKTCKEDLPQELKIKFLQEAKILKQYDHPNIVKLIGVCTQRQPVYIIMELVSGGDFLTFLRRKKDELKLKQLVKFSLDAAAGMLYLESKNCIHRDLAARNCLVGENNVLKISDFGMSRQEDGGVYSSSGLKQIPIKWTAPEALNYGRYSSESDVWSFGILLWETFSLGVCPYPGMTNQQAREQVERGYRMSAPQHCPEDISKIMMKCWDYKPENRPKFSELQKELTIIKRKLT
# Description: The kinases were expressed as fusions to T7 bacteriophage. This is a sensitive, competitive binding assay where test compounds were used to displace immobilized ATP-site binding probe ligands from kinases of interest. The amount of kinase that remained bound to the immobilized probe ligands on the solid support was quantified. Percentage inhibition data were was plotted on kinome trees using the web-based tool KinMap (http://www.kinhub.org/kinmap) ([60]).
# [1] = Host cell cytotoxicity assay (CellTiter-Glo); conditions: human, HepG2 cells
# Experimental: HepG2 cells were grown in Eagle’s Minimum Essential Medium (MEM) containing 10% FBS, 1% nonessential amino acids (NEAA) and 1% penicillin/streptomycin to >50% confluence prior to harvesting. Cells were suspended in media and 3000 cells per well were added onto 384-well clear bottom plates. Prior to addition of the cell suspension, the screening compounds (250 nl) were predispensed into plates using a liquid handler. Plates were incubated for 48 h at 37°C, 5% CO2. After 48 h of incubation, plates were equilibrated at room temperature for 30 min before luminescence signal was measured using CellTiter-Glo Reagent. Plates were kept at room temperature for 10 min to stabilize the signal and then read using a ViewLux luminescence reader. The HepG2 CC50 (from the host cell cytotoxicity assays) and C. parvum mean EC50 (from parasite growth inhibition assays) values were used to calculate selectivity index.
# PKAC-alpha = molecular target: T6, PKAC-alpha (Homo sapiens, UniProt P17612); assay: KINOMEscan competitive binding; conditions: n=1, read-out: Percent inhibition, PKAC-alpha
# T6 construct: purchased DiscoverX (KINOMEscan)
# PHKG2 = molecular target: T7, PHKG2 (Homo sapiens, UniProt P15735); assay: KINOMEscan competitive binding; conditions: n=1, read-out: Percent inhibition, PHKG2
# T7 construct: purchased DiscoverX (KINOMEscan)
# T7 sequence (P15735 1-406): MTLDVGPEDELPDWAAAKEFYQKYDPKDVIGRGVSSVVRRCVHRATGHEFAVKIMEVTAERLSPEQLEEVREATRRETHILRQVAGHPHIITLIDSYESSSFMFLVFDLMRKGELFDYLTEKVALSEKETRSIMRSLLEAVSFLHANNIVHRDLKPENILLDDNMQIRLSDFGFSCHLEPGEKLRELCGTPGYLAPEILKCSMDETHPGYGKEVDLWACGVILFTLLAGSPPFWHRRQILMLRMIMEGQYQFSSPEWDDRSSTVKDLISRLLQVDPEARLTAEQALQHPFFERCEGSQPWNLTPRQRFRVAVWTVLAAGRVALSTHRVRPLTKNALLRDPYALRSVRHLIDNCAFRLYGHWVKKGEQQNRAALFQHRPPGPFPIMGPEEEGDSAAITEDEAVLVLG
# ROS1 = molecular target: T8, ROS1 (Homo sapiens, UniProt P08922); assay: KINOMEscan competitive binding; conditions: n=1, read-out: Percent inhibition, ROS1
# T8 construct: purchased DiscoverX (KINOMEscan)
# T8 sequence (P08922 28-2347): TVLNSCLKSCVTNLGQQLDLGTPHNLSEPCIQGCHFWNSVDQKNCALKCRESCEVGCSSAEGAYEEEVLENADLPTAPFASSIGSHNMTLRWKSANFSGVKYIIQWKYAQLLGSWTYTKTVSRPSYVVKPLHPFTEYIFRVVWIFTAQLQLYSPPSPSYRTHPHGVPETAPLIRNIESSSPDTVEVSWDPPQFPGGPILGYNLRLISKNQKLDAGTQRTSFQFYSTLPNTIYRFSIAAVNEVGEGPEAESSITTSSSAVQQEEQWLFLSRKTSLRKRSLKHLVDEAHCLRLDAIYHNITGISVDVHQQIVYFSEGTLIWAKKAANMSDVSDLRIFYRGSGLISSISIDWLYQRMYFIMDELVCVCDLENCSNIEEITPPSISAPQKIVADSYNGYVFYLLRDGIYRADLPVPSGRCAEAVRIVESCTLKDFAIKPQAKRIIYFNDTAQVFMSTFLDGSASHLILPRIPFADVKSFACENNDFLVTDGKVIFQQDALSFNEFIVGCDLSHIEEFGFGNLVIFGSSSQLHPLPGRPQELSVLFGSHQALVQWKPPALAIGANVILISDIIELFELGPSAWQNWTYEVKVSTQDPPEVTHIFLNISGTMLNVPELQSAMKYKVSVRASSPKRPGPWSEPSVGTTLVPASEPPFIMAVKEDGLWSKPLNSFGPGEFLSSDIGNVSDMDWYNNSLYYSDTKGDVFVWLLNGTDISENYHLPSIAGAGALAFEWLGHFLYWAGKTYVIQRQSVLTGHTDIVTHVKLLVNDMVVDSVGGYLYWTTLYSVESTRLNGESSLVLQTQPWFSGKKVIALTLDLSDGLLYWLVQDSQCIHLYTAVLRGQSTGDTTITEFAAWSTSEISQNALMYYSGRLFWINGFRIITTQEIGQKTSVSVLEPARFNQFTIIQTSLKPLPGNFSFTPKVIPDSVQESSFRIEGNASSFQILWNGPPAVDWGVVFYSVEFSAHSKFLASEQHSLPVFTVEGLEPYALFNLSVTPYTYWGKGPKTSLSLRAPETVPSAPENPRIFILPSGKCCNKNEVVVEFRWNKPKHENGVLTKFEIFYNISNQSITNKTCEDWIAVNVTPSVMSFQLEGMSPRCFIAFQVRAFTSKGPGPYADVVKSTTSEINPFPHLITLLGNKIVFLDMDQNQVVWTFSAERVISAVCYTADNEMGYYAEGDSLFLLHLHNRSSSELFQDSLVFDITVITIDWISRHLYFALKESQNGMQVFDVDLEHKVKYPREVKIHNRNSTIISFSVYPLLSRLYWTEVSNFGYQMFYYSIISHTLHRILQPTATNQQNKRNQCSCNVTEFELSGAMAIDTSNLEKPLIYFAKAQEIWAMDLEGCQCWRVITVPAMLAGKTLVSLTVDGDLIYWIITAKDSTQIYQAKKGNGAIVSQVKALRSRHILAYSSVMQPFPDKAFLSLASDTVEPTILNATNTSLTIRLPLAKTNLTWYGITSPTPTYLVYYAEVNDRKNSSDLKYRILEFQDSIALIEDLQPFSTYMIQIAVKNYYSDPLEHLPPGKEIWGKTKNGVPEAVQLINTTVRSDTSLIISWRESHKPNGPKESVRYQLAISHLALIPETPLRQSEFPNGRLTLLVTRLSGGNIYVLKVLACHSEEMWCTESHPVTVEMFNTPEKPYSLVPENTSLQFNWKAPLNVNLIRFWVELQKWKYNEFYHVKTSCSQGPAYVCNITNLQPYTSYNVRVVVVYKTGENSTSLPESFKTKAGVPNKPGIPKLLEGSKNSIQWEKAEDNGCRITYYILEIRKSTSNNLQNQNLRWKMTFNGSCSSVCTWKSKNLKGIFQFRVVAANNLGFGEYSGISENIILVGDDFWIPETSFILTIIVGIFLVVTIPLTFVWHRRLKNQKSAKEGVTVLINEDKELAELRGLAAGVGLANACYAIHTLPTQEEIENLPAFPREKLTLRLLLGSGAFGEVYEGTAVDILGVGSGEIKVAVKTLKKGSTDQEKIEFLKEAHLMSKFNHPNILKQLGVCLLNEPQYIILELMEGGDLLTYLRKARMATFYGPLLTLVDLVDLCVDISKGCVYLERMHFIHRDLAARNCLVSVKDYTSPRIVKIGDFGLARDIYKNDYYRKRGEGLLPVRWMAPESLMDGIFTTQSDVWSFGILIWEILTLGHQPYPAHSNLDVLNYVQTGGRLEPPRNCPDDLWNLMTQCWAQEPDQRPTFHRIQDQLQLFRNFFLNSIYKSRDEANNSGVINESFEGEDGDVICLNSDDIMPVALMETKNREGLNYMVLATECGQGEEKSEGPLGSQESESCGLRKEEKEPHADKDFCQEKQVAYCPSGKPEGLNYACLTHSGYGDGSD
# YSK1 = molecular target: T9, YSK1 (Homo sapiens, UniProt O00506); assay: KINOMEscan competitive binding; conditions: n=1, read-out: Percent inhibition, YSK1
# T9 construct: purchased DiscoverX (KINOMEscan)
SMILES,inhibition at 10 µM (TNNI3K),inhibition at 10 µM (PAK3),inhibition at 10 µM (PLK3),inhibition at 10 µM (TIE2),inhibition at 10 µM (panel of 203 kinases),CC50 at 48 h [1],inhibition at 10 µM (PKAC-alpha),inhibition at 10 µM (PHKG2),inhibition at 10 µM (ROS1),inhibition at 10 µM (YSK1)
CN1CCN(c2ccc(Nc3nccc(-c4cnn5ncccc45)n3)cc2C#N)CC1 [Compound 1],0%,85.3%,0%,0%,0%,> 100 µM,0%,100%,91.9%,90.8%
COc1ccc(Nc2nccc(-c3cnn4ncccc34)n2)cc1 [Compound 2],0%,0%,0%,0%,74.7%,> 100 µM,0%,97.1%,90.3%,0%
Cc1ccc(O)cc1Nc1ccnc(Nc2cccc(C(N)=O)c2)n1 [Compound 3],99.9%,0%,79%,97.5%,95%,33.1 µM,0%,0%,0%,0%
Cc1ccc(O)cc1N(C)c1ccnc(Nc2cccc(S(N)(=O)=O)c2)n1 [Compound 4],100%,0%,0%,100%,99.6%,,68.9%,0%,90%,0%
Fc1cccc(COc2ccc(Nc3ncnc4c3CN(CCN3CCOCC3)CC4)cc2Cl)c1 [Compound 6],0%,0%,0%,0%,0%,46.7 µM,0%,0%,0%,0%
COc1cc(Nc2nccc(-c3sc(N)nc3-c3cccc(NC(=O)c4c(F)cccc4F)c3)n2)cc(OC)c1OC [Compound 7],100%,94.9%,99.8%,100%,99%,2.6 µM,0%,0%,80.6%,96.3%
C[C@@H](Oc1cc(-c2cnc3ccccn23)sc1C(N)=O)c1ccccc1Cl [Compound 8],0%,0%,95.6%,0%,0%,,0%,74.6%,0%,0%
c1ccc(COc2cccc(-c3ccnc4[nH]ccc34)c2)cc1 [Compound 9],0%,0%,0%,0%,0%,,0%,0%,0%,0%
Clc1ccc(Nc2ncc(-c3ccccc3)s2)cc1 [Compound 10],86%,0%,0%,0%,0%,,0%,0%,0%,0%
Nc1ncc2c(-c3ccncc3)c[nH]c2n1 [Compound 11],0%,0%,0%,0%,0%,50.1 µM,0%,0%,0%,0%
